This note sets out measurements from PubChem BioAssay (NCI).

Several values for one entry are separate records, joined by “and”; a condition that tells them apart may be missing. Equal entries are not always repeated.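 Following 48 hours of exposure in 96-well plates, responses at five concentrations were used to interpolate endpoints linearly. Here, GI50 denotes the concentration required for 50% inhibition of growth. TGI: concentration producing complete growth inhibition.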 A value given as a limit tells only on which side of the number the result lay.

Holding throughout (experiment): NCI anticancer screen, dose series, 48 h
In assay [1] the test system is OVCAR-3 ovarian.
Assay [2] deals with SR leukemia.
Assay [3] deals with HL-60(TB) leukemia.
Assay [4] deals with SF-295 CNS.
The subject of assay [5] is EKVX NSCLC.
Assay [6] has as its system SK-MEL-2 melanoma.
Assay [7] deals with DU-145 prostate.
Assay [8] deals with T-47D breast.
In assay [9] the test system is TK-10 renal.
The test system of assay [10] is ACHN renal.

Turning to `CN(C)c1ccc(/C=C/c2ccnc3ccccc23)cc1N`, the TGI in [1] came out at 10.2 µM; in [2] it was 5.87 µM; in assay [3], 13.9 µM; in [4], 27.7 µM; in assay [5], 22.4 µM; in assay [6], 21.3 µM. Further, the TGI in assay [7] is 30.2 µM; in assay [8], 5.36 µM; in [9], 20.2 µM; in [10] it was 24.1 µM.

As for `N#Cc1c(-c2ccc(Cl)cc2)c(-c2ccc(Cl)cc2)nn(CCOC(=O)CCC(=O)O)c1=O`, the TGI is 0.853 µM in [1]; 25.6 µM in assay [2]; 10.5 µM in assay [3]; 16.9 µM in assay [4]; more than 100 µM in assay [5]; 28.2 µM in [6]. Further, the TGI in [7] was 6.86 µM; in assay [8], more than 100 µM; in assay [9], more than 100 µM; in [10], more than 100 µM.

Take `CCCC(=O)Nc1cc([N+](=O)[O-])c([N+](=O)[O-])cc1OC`: the TGI in assay [1] turned out to be 27.8 µM; in assay [2] it was 21.5 µM; in assay [3] it was 39 µM; in assay [4], 21.7 µM; in [5] it was 31.8 µM; in assay [6], 41.6 µM. Further, the TGI in [7] turned out to be 31.6 µM; in assay [8], 19.4 µM; in assay [9] it was 31 µM; in assay [10], 26.5 µM.

Turning to `CC(C)=CCc1ccc(O)c(=O)cc1C(C)C`, the GI50 was 0.654 µM in [1]; 0.465 µM in assay [2]; 0.624 µM in [3]; 0.939 µM in [4]; 0.831 µM in assay [5]; 2.06 µM in [6]. Further, the GI50 in [7] is 0.889 µM; in [8] it was 3.29 µM; in [9], 0.746 µM; in [10], 0.484 µM. In addition, the TGI in assay [1] is more than 83.4 µM; in [2], more than 100 µM; in [3], 8.72 µM; in assay [4], more than 36.9 µM; in assay [5], more than 100 µM; in [6], more than 85.7 µM. In addition, the TGI in [7], in assay [8], in assay [9] and in [10] was more than 100 µM throughout.

Consider `Nc1nc(Cl)c(N=Nc2ccc(Cl)cc2)c(NCC2(CO)CC(OCc3ccccc3)C2)n1` (stereo not given), for which the GI50 in [1] was 5.88 µM and 19.2 µM and 6.07 µM; in assay [2] it was 2.95 µM and 6.33 µM and 3.1 µM; in [3], 3.09 µM; in [4], 22.2 µM and 45 µM and 13.4 µM; in [5] it was 2.37 µM and 11 µM and 3.08 µM; in [6], 17.3 µM and > 31.3 µM and 13.6 µM. Besides, the GI50 was 6.16 µM and 14.6 µM and 4.62 µM in [7]; 8.73 µM in assay [8]; 2.6 µM in [10]. In addition, the TGI was 45 µM and > 100 µM and 21.5 µM in assay [1]; 29 µM and > 100 µM in assay [3]; 99.5 µM and > 100 µM and 30.8 µM in [4]; 61.4 µM and > 100 µM and 28 µM in [6]; 92.2 µM and > 100 µM and 26.5 µM in [7]; 73.1 µM and > 100 µM and > 77.2 µM in [8]. In addition, the TGI is 46.9 µM and > 100 µM and 24.3 µM in assay [9]; 20.3 µM and 3.55 µM and 3.47 µM in assay [10].

As to `COc1ccc(Cn2cc3c(c2-c2ccc(O)cc2)CCc2cnoc2-3)cc1`, the GI50 in assay [1] was 0.221 µM; in [2], 0.149 µM; in assay [3], 0.221 µM; in assay [4], 0.225 µM; in [5], 0.438 µM; in assay [6], 0.379 µM. Moreover, the GI50 in [7] is 0.365 µM; in assay [8], 0.377 µM; in assay [9], 0.603 µM; in [10], 0.956 µM. Also, the TGI in assay [1] was 0.557 µM; in assay [2], 3.79 µM; in assay [3], 0.745 µM; in assay [4] it was 2.49 µM; in assay [5], 26.9 µM; in assay [6], 20.2 µM. For the same molecule, the TGI amounted to 5.14 µM in [7], 23.7 µM in [8], 24.4 µM in [9] and 19.5 µM in assay [10].

Take `N#Cc1c(NC(=O)c2cccc3ccccc23)sc2c1CCCC2`: the GI50 in assay [1] is 0.0417 µM; in [2] it was 0.026 µM; in assay [3], 0.0545 µM; in assay [4] it was 0.0109 µM; in [5] it was 0.132 µM; in assay [6], 0.137 µM. The figures for the GI50 in assay [7], in [8] and in assay [10] were 0.0759 µM, 0.101 µM and 0.34 µM, respectively. In addition, the TGI was 0.107 µM in [1]; more than 9.97 µM in assay [2]; more than 25 µM in [4]; more than 25 µM in [5]; more than 25 µM in assay [6]; 2.86 µM in assay [7]. The TGI was more than 20.1 µM in assay [8] and more than 25 µM in assay [10].

In the case of `O=C(Nc1ccc(Cl)cc1)c1ccc([N+](=O)[O-])o1`, the GI50 in [1] is 2.92 µM; in assay [2] it was 0.553 µM; in [3] it was 2.63 µM; in assay [4] it was 3.29 µM; in assay [5] it was 3.02 µM; in assay [6], 2.76 µM. Moreover, the GI50 was 3.95 µM in assay [7], 4.42 µM in assay [8], 2.4 µM in assay [9] and 1.95 µM in assay [10]. Moreover, the TGI is 9.4 µM in [1]; 16.5 µM in assay [2]; 7.66 µM in assay [3]; 12.3 µM in assay [4]; 12.5 µM in [5]; 6.53 µM in assay [6]. The TGI in assay [7] is 11.4 µM; in assay [8], 23.2 µM; in assay [9] it was 5.32 µM; in assay [10], 4.07 µM.

As to `C/C=C(\CCC1NCCc2c1[nH]c1ccccc21)[Si](C)(C)C` (stereo not given), the GI50 in assay [1] is 0.413 µM and 2.91 µM; in assay [2] it was 8.12 µM and 2.7 µM; in [3], 6.28 µM and 1.51 µM; in [4], 7.13 µM and 2.32 µM; in assay [6], 5.28 µM and 1.94 µM; in assay [9] it was 14.3 µM and 5.62 µM. The GI50 in assay [10] was 11.4 µM and 2.79 µM. The TGI in assay [1] was 2.39 µM and 7.41 µM; in [2] it was 18.4 µM and 8.42 µM; in assay [3] it was 13.2 µM and 3.3 µM; in assay [4], 17.5 µM and 5.52 µM; in [5], 28.6 µM and 22.1 µM; in assay [6], 9.67 µM and 3.7 µM. For the same molecule, the TGI in assay [7] is 26.1 µM; in assay [8] it was 4.89 µM; in assay [9] it was 27.5 µM and 17 µM; in [10] it was 25 µM and 8.04 µM.

For the molecule `COc1cc(C(=O)/C=C/c2c(-c3ccc(F)cc3)nc3ncccn23)cc(OC)c1OC`, the GI50 is 1.4 µM in assay [1]; 2.28 µM in [2]; 3.33 µM in assay [3]; 2.43 µM in assay [4]; 2.71 µM in assay [5]; 2.38 µM in assay [6]. Besides, the GI50 in assay [7] is 1.63 µM; in assay [8], 2.09 µM; in assay [9] it was 3.25 µM; in [10] it was 2.21 µM. Also, the TGI in assay [1] is 3.64 µM; in assay [2], more than 100 µM; in assay [3], more than 100 µM; in assay [4], 6.53 µM; in assay [5] it was more than 100 µM; in assay [6] it was 6.97 µM. Moreover, the TGI in assay [7] worked out at 6.11 µM; in [8], 9.22 µM; in assay [9], 22.6 µM; in assay [10] it was 6.45 µM.

Take `c1ccc2c(-c3nc4ccccc4[nH]3)cccc2c1`: the GI50 in [1] is 2.17 µM; in assay [2], 1.42 µM; in [3] it was 2.78 µM; in [4] it was 2.98 µM; in assay [6], 2.15 µM; in assay [7], 3.04 µM. In addition, the GI50 in [8] was 6.06 µM; in [9], 8.15 µM; in assay [10] it was 7.97 µM. Also, the TGI in assay [1] is 6.89 µM; in assay [2], 21.4 µM; in assay [3] it was 14.8 µM; in [4] it was 29.1 µM; in [6] it was 8.68 µM; in assay [7], 9.29 µM. In addition, the TGI is more than 100 µM in [8], 55.7 µM in assay [9] and more than 100 µM in assay [10].

In the case of `O=C1CSC(=S)N1Cc1cccnc1`, the GI50 is 3.39 µM in assay [1]; 3.56 µM in [2]; 7.27 µM in [3]; 37.7 µM in assay [4]; 4.21 µM in assay [6]; 2.4 µM in assay [7]. For the same molecule, the GI50 was 11.1 µM in [8], 2.84 µM in [9] and 6.14 µM in assay [10]. The TGI in [1] was 12.1 µM; in assay [2], more than 100 µM; in [3], 49 µM; in assay [4], more than 100 µM; in [6], 16.5 µM; in assay [7], 5.71 µM. In addition, the TGI was 32.7 µM in assay [8], 7.14 µM in assay [9] and 19.5 µM in [10].

Turning to `NC(N)=N/N=C(/c1ccccc1)c1ccc(Cl)cc1`, the GI50 in assay [1] is 2.88 µM; in assay [2] it was 3.94 µM; in assay [3], 1.34 µM; in assay [4], 10.3 µM; in assay [6] it was more than 100 µM; in assay [7] it was 4.89 µM. Besides, the values for the GI50 in [8], in assay [9] and in assay [10] were more than 100 µM, 32 µM and 40.6 µM, respectively. For the same molecule, the TGI in assay [1] was 12.1 µM; in assay [2] it was more than 100 µM; in assay [3] it was 62.2 µM; in assay [4], more than 100 µM; in assay [6] it was more than 100 µM; in assay [7], 24.8 µM. Moreover, the TGI in assay [8], in assay [9] and in assay [10] was more than 100 µM throughout.
